# Measured values reported in US9315490B2, “2,5-substituted pyrimidines” (Grünenthal GmbH, priority 2014, dated 2016).
# Target: T1, human PDE4B1 (Homo sapiens, UniProt Q07343)
# T1 construct: host or cells: Sf9 cells
# Assay: cAMP HTRF assay to determine the activity of hPDE4B1
# Format: biochemical
# Details: inhibition of PDE4B at a test concentration of 1 μM
# Method: Biological Testing cAMP HTRF® Assay to Determine the Activity of hPDE4B1
# The inhibiting effect of the compounds on the enzyme activity of human PDE4B1 was measured by the quantification of 5′-adenosine monophosphate (5′-AMP), which is formed from 3′,5′-cyclic adenosine monophosphate (cAMP). Human recombinant enzyme, expressed in Sf9 cells, and the HTRF (homogeneous time-resolved fluorescence) detection method were used in the assay.
# The test compound or water (control) was mixed with the human recombinant PDE4B1 enzyme (4.8 U) in a buffer consisting of 44.4 mM tris-HCl, 5.28 mM MgCl2, 2.64 mM DTT and 0.044% Tween 20 (pH 7.8). After adding the cAMP enzyme substrate (final concentration 40 nM), the mixture was incubated for 30 minutes at room temperature. Then a fluorescence acceptor (Dye2 marked with cAMP), a fluorescence donor (anti-cAMP antibody marked with a europium cryptate) and the non-specific phosphodiesterase inhibitor IBMX (3-isobutyl-1-methylxanthine; final concentration 1 mM) were added. After 60 minutes the fluorescence transfer, which correlates with the amount of remaining cAMP, was measured with a microplate reader (Rubystar, BMG) at λex=337 nm, λem=620 nm and λem=665 nm. The enzyme activity was calculated from the quotient formed from the measured signal at 665 nm and that at 620 nm. The result was expressed as the percentage inhibition of enzyme activity of the control (without PDE4 inhibitor). The enzyme was omitted for measurement of the basal control. IC50 values (IC50=concentration causing a half-maximal inhibition of control specific activity) were derived from dose response measurements with eight different concentrations (n=2; N=1-3).
# Literature: N. Saldou et al., Comparison of recombinant human PDE4 isoforms: interaction with substrate and inhibitors, Cell. Signal. Vol. 10, No. 6, 427-440, 1998
# T1 sequence (Q07343 whole entry): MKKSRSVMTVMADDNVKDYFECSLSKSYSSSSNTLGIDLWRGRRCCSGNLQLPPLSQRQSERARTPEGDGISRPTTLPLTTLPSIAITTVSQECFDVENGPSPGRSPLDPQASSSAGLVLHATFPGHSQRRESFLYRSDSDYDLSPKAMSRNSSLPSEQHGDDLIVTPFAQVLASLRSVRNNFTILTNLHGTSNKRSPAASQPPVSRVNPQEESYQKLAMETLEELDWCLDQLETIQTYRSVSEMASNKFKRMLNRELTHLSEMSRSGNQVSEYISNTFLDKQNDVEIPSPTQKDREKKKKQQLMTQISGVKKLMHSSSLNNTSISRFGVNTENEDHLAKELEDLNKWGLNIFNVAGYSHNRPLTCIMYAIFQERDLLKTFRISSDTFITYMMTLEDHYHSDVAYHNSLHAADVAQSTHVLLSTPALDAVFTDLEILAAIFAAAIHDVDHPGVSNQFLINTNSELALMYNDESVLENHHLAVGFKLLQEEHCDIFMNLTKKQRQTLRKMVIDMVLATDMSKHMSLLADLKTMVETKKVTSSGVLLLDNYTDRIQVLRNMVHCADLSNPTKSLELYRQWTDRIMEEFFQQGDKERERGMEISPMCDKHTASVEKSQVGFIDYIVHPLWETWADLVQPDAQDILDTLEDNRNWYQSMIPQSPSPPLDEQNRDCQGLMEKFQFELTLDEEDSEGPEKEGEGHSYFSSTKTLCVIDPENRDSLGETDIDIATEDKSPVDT
row,Compound,inhibition at 1 µM [%]
1,"CN(C(=O)c1ccc2c([S+](C)[O-])cn(-c3ncc(-c4ccccc4F)cn3)c2c1)C1CCOC1 (stereo not drawn) [Example 54, 1-(5-(2-Fluorophenyl)pyrimidin-2-yl)-N-methyl-3-(methylsulfinyl)-N-(tetrahydrofuran-3-yl)-1H-indole-6-carboxamide]",46
2,"C[S+]([O-])c1cn(-c2ncc(-c3ccccc3F)cn2)c2cc(C(=O)N3CCCNCC3)ccc12 (stereo not drawn) [Example 55, (1,4-Diazepan-1-yl)(1-(5-(2-fluorophenyl)pyrimidin-2-yl)-3-(methylsulfinyl)-1H-indol-6-yl)methanone]",40
3,"C[S+]([O-])c1cn(-c2ncc(-c3ccccc3F)cn2)c2cc(C(=O)N3CCNC(=O)C3)ccc12 (stereo not drawn) [Example 56, 4-(1-(5-(2-Fluorophenyl)pyrimidin-2-yl)-3-(methylsulfinyl)-1H-indole-6-carbonyl)piperazin-2-one]",86
4,"CN(C(=O)c1ccc2c([S+](C)[O-])cn(-c3ncc(-c4ccccc4F)cn3)c2c1)C1CCNC1 (stereo not drawn) [Example 58, 1-(5-(2-Fluorophenyl)pyrimidin-2-yl)-N-methyl-3-(methylsulfinyl)-N-(pyrrolidin-3-yl)-1H-indole-6-carboxamide]",90
5,"C[S+]([O-])c1cn(-c2ncc(-c3ccccc3F)cn2)c2cc(C(=O)N3CCCOCC3)ccc12 (stereo not drawn) [Example 60, (1-(5-(2-Fluorophenyl)pyrimidin-2-yl)-3-(methylsulfinyl)-1H-indol-6-yl)(1,4-oxoazepan-4-yl)methanone]",79
6,"CNC(=O)c1ccc2c([S+](C)[O-])cn(-c3ncc(-c4ccccc4F)cn3)c2c1 (stereo not drawn) [Example 61, 1-(5-(2-Fluorophenyl)pyrimidin-2-yl)-N-methyl-3-(methylsulfinyl)-1H-indole-6-carboxamide]",77
7,"C[S+]([O-])c1cn(-c2ncc(-c3ccccc3F)cn2)c2cc(C(=O)NCCO)ccc12 (stereo not drawn) [Example 63, 1-(5-(2-Fluorophenyl)pyrimidin-2-yl)-N-(2-hydroxyethyl)-3-(methylsulfinyl)-1H-indole-6-carboxamide]",37
8,"CN(CCO)C(=O)c1ccc2c([S+](C)[O-])cn(-c3ncc(-c4ccccc4F)cn3)c2c1 (stereo not drawn) [Example 64, 1-(5-(2-Fluorophenyl)pyrimidin-2-yl)-N-(2-hydroxyethyl)-N-methyl-3-(methylsulfinyl)-1H-indole-6-carboxamide]",67
9,"COCCN(C)C(=O)c1ccc2c([S+](C)[O-])cn(-c3ncc(-c4ccccc4F)cn3)c2c1 (stereo not drawn) [Example 65, 1-(5-(2-Fluorophenyl)pyrimidin-2-yl)-N-(2-methoxyethyl)-N-methyl-3-(methylsulfinyl)-1H-indole-6-carboxamide]",40
10,"C[S+]([O-])c1cn(-c2ncc(-c3ccccc3F)cn2)c2cc(C(=O)N3CC[C@@H](O)C3)ccc12 (stereo partly drawn) [Example 66, (1-(5-(2-Fluorophenyl)pyrimidin-2-yl)-3-(methylsulfinyl)-1H-indol-6-yl)((R)-3-hydroxypyrrolidin-1-yl)methanone]",97
11,"C[S+]([O-])c1cn(-c2ncc(-c3ccccc3F)cn2)c2cc(C(=O)N3CC[C@H](O)C3)ccc12 (stereo partly drawn) [Example 67, (1-(5-(2-Fluorophenyl)pyrimidin-2-yl)-3-(methylsulfinyl)-1H-indol-6-yl)((S)-3-hydroxypyrrolidin-1-yl)methanone]",47
12,C[S+]([O-])c1cn(-c2ncc(-c3ccccc3F)cn2)c2cc(C(=O)N3CC[C@@H](N)C3)ccc12 (stereo partly drawn) [Example 68],108
13,"CS(=O)(=O)c1cn(-c2ncc(-c3ccccc3F)cn2)c2cc(C(=O)N3CC[C@@H](N)C3)ccc12 [Example 69, (R)-(3-Aminopyrrolidin-1-yl)(1-(5-(2-fluorophenyl)pyrimidin-2-yl)-3-(methylsulfonyl)-1H-indol-6-yl)methanone]",95
14,"C[S+]([O-])c1cn(-c2ncc(-c3ccccc3)cn2)c2cc(C(=O)N3CCNC(=O)C3)ccc12 (stereo not drawn) [Example 70, 4-(3-(Methylsulfinyl)-1-(5-phenylpyrimidin-2-yl)-1H-indole-6-carbonyl)piperazin-2-one]",84
15,COC[C@@H]1CCCN1C(=O)c1ccc2c([S+](C)[O-])cn(-c3ncc(-c4ccccc4F)cn3)c2c1 (stereo partly drawn) [Example 71],63
16,"C[S+]([O-])c1cn(-c2ncc(-c3ccccc3F)cn2)c2cc(C(=O)N3CCC(O)CC3)ccc12 (stereo not drawn) [Example 73, (1-(5-(2-Fluorophenyl)pyrimidin-2-yl)-3-(methylsulfinyl)-1H-indol-6-yl)(4-hydroxypiperidin-1-yl)methanone]",78
17,"C[S+]([O-])c1cn(-c2ncc(-c3ccccc3F)cn2)c2cc(C(=O)NC3COC3)ccc12 (stereo not drawn) [Example 75, 1-(5-(2-Fluorophenyl)pyrimidin-2-yl)-3-(methylsulfinyl)-N-(oxetan-3-yl)-1H-indole-6-carboxamide]",47
18,"CN1CCN(C(=O)c2ccc3c([S+](C)[O-])cn(-c4ncc(-c5ccccc5F)cn4)c3c2)CC1=O (stereo not drawn) [Example 76, 4-(1-(5-(2-Fluorophenyl)pyrimidin-2-yl)-3-(methylsulfinyl)-1H-indole-6-carbonyl)-1-methylpiperazin-2-one]",58
19,"COC[C@H]1CCCN1C(=O)c1ccc2c([S+](C)[O-])cn(-c3ncc(-c4ccccc4F)cn3)c2c1 (stereo partly drawn) [Example 77, (1-(5-(2-Fluorophenyl)pyrimidin-2-yl)-3-(methylsulfinyl)-1H-indol-6-yl)((R)-2-(methoxymethyl)pyrrolidin-1-yl)methanone]",67
20,"C[S+]([O-])c1cn(-c2ncc(-c3ccccc3F)cn2)c2cc(C(=O)N3CCC[C@@H]3CO)ccc12 (stereo partly drawn) [Example 78, (1-(5-(2-Fluorophenyl)pyrimidin-2-yl)-3-(methylsulfinyl)-1H-indol-6-yl)((R)-2-(hydroxymethyl)pyrrolidin-1-yl)methanone]",70
21,"C[S+]([O-])c1cn(-c2ncc(-c3ccccc3F)cn2)c2cc(C(=O)N3CCC[C@H]3CO)ccc12 (stereo partly drawn) [Example 79, (1-(5-(2-Fluorophenyl)pyrimidin-2-yl)-3-(methylsulfinyl)-1H-indol-6-yl)((S)-2-(hydroxymethyl)pyrrolidin-1-yl)methanone]",103
22,"C[S+]([O-])c1cn(-c2ncc(-c3ccccc3F)cn2)c2cc(C(=O)N3CCC[C@@H](O)C3)ccc12 (stereo partly drawn) [Example 80, (1-(5-(2-Fluorophenyl)pyrimidin-2-yl)-3-(methylsulfinyl)-1H-indol-6-yl)((R)-3-hydroxypiperidin-1-yl)methanone]",96
23,"C[S+]([O-])c1cn(-c2ncc(-c3ccccc3F)cn2)c2cc(C(=O)N3CCC[C@H](O)C3)ccc12 (stereo partly drawn) [Example 81, (1-(5-(2-Fluorophenyl)pyrimidin-2-yl)-3-(methylsulfinyl)-1H-indol-6-yl)((S)-3-hydroxypiperidin-1-yl)methanone]",63
24,"CO[C@@H]1CCN(C(=O)c2ccc3c([S+](C)[O-])cn(-c4ncc(-c5ccccc5F)cn4)c3c2)C1 (stereo partly drawn) [Example 82, (1-(5-(2-Fluorophenyl)pyrimidin-2-yl)-3-(methylsulfinyl)-1H-indol-6-yl)((R)-3-methoxypyrrolidin-1-yl)methanone]",71
25,"C[S+]([O-])c1cn(-c2ncc(-c3ccccc3F)cn2)c2cc(C(=O)NCC3COC3)ccc12 (stereo not drawn) [Example 83, 1-(5-(2-Fluorophenyl)pyrimidin-2-yl)-3-(methylsulfinyl)-N-(oxetan-3-ylmethyl)-1H-indole-6-carboxamide]",67
26,"C[C@@H]1CN(C(=O)c2ccc3c([S+](C)[O-])cn(-c4ncc(-c5ccccc5F)cn4)c3c2)CCO1 (stereo partly drawn) [Example 84, (1-(5-(2-Fluorophenyl)pyrimidin-2-yl)-3-(methylsulfinyl)-1H-indol-6-yl)((R)-2-methylmorpholino)methanone]",106
27,"C[C@H]1CN(C(=O)c2ccc3c([S+](C)[O-])cn(-c4ncc(-c5ccccc5F)cn4)c3c2)CCO1 (stereo partly drawn) [Example 85, (1-(5-(2-Fluorophenyl)pyrimidin-2-yl)-3-(methylsulfinyl)-1H-indol-6-yl)((S)-2-methylmorpholino)methanone]",115
28,"C[S+]([O-])c1cn(-c2ncc(-c3ccc(O)cc3)cn2)c2cc(C(=O)N3CCOCC3)ccc12 (stereo not drawn) [Example 86, (1-(5-(4-Hydroxyphenyl)pyrimidin-2-yl)-3-(methylsulfinyl)-1H-indol-6-yl)(morpholino)methanone]",99

# Same assay, conditions: inhibition of PDE4B at a test concentration of 1 μM, 1 µM
row,Compound,Inhibition in % [%]
1,"COC1CCN(C(=O)c2ccc3c([S+](C)[O-])cn(-c4ncc(-c5ccccc5F)cn4)c3c2)CC1 (stereo not drawn) [Example 72, (1-(5-(2-Fluorophenyl)pyrimidin-2-yl)-3-(methylsulfinyl)-1H-indol-6-yl)(4-methoxypiperidin-1-yl)methanone]",33
2,"C[S+]([O-])c1cn(-c2ncc(-c3ccccc3F)cn2)c2cc(C(=O)N3CCOC(C)(C)C3)ccc12 (stereo not drawn) [Example 74, (2,2-Dimethylmorpholino)(1-(5-(2-fluorophenyl)pyrimidin-2-yl)-3-(methylsulfinyl)-1H-indol-6-yl)methanone]",63
